From BigSolDB 2.1

CCCCCCOC(=O)NC(=N)c1ccc(NCc2nc3cc(C(=O)N(CCC(=O)OCC)c4ccccn4)ccc3n2C)cc1.CS(=O)(=O)O
solubility (mole fraction)
Conditions | 287.37 K | 292.2 K | 297.95 K | 303.97 K | 308.88 K | 313.59 K | 318.4 K | 323.39 K
in DMAc | 0.0228 | 0.0241 | 0.0264 | 0.0285 | 0.0311 | 0.0338 | 0.0372 | 0.0403
in DMF | 0.0217 | 0.0229 | 0.0246 | 0.0269 | 0.0294 | 0.0318 | 0.035 | 0.0385
in ethanol | 0.00092 | 0.00116 | 0.00153 | 0.00208 | 0.00267 | 0.00343 | 0.00458 | 0.00626
in ethylene glycol | 0.00425 | 0.00524 | 0.00619 | 0.00786 | 0.00961 | 0.0112 | 0.0143 | 0.0179
in methanol | 0.0158 | 0.018 | 0.0224 | 0.0274 | 0.0333 | 0.0389 | 0.0471 | 0.055
